Values of other authors in US9326457B2, “Micro layering pest control solution” (DAIRY SOLUTIONS, INC, priority 2013, dated 2016).

Settings: natural pyrethrum, degrades very quickly; short duration application

Pyrethrin
half life: about 30 mins
